Laboratory results published in US20240360143A1, “[1,2,4]TRIAZOLO[4,3-A]PYRIMIDIN-7(8H)-ONE AS MITOCHONDRIAL PYRUVATE CARRIER INHIBITORS FOR USE IN THE TREATMENT OF CANCER” (MPC THERAPEUTICS SA, priority 2021, published 2024).

Key:
[1] = target: T1, mitochondrial pyruvate carrier (MPC) (Homo sapiens, UniProt O95563+Q9Y5U8); assay: Bret IC50, inhibitory activity against MPC; assay type: cell-based
T1 sequence (Q9Y5U8 1-109): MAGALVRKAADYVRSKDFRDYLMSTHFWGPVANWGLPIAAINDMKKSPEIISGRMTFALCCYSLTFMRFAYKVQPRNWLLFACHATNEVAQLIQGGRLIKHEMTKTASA
T1 sequence (O95563 1-127): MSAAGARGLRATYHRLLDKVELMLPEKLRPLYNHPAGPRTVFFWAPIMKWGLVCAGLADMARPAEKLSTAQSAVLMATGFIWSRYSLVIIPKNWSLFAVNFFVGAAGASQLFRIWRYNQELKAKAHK
Excerpt: (§1) The inhibition of mitochondrial pyruvate carrier (MPC) by compounds of the invention have been tested as follows and their inhibitory activity was expressed as IC50s values.
Table 2 below presents the IC50s of the compounds of the invention.

[2] = target: T1, mitochondrial pyruvate carrier (MPC); assay: Seahorse Xfe24 pyruvate-dependent OCR in HeLa cells; assay type: cell-based; settings: pyruvate-dependent OCR in presence of fCCP
Protocol: as §1
Cells are plated in the customized Seahorse plates. For HeLa cells, seeding is at 4×10^4 cells/well in […] DMEM, 10% FBS, 1% pen/strep/glutamine. 3 wells are left blank (medium alone) for internal calibration. The assay cartridge is hydrated overnight at 37° C. in 1 ml/well XF Calibrant Solution.
Since 50 μl of compound of the invention will be injected into 450 μl washed cells, compounds are made up in assay medium at 10× the final desired concentration
For dose response analyses, compounds are tested at final concentrations 30, 5, 0.83, 0.14, 0.023 μM (1:6 serial dilutions from […])
Positive control: […] (the parent hit compound which gave rise to the actual series)
Negative control: Assay medium alone.
The seahorse reagent plate is prepared as follows and transfered to the Xfe24 analyser for the calibration step:
The medium is almost completely removed from the well without allowing cells to dry Cells are washed twice with 300 μl Assay Medium. 450 μl fresh Assay Medium is added to each well. The plate is transferred to the Xfe24 analyser for measurement of pyruvate-dependent OCR. All values are normalized to the initial basal respiration rate in each well which is measured prior to addition of compounds and designated as 100%. IC50 determination is based on the average of the 3 measurements made in the presence of fCCP, taking 30 μM parent hit compound as maximal inhibition and PBS/Ca/Mg as zero inhibition.

[3] = system: CD8 T cells (OT1 splenocytes); assay: In vitro priming of CD8 T cells (OT1 splenocytes), memory marker expression by flow cytometry; assay type: cell-based, mouse; settings: day 7, highest doses
Protocol: OT1 splenocytes were cultured for 3 days at a concentration of 10^6 cells per mL in RPMI medium (Gibco 61870-01) supplemented with 10% FBS, (Gibco 10270-106), 1% Penicillin/Streptomycin (Gibco 15070-063), 50 μM ß-mercaptoethanol, 1% HEPES (Gibco 15630-080), 1× Non-essential amino acids (Gibco 11140-035), 1% L-glutamine (Gibco 25030-081), 1 mM Sodium Pyruvate (Gibco 11360-039). Cells were additionally supplemented with hIL-2 100 U/ml (Glaxo-IMB), ovalbumin N4 peptide (257-264) 1 μg/ml (model peptide antigen from ovalbumin) and either different concentrations of Compound 45 or 47 or with their solvent DMSO as a control. At day 3, splenocytes were collected, washed and split, and cells were cultured for 4 additional days with 100 U/ml hIL-2 and hIL-7 (Peprotech 200-07) supplemented either with Compound 45 or 47 or DMSO. At day 7, flow cytometry analyses were performed for surface marker expression.
To evaluate the effects of MPC inhibition on T cell differentiation, OTI splenocytes were cultured in the presence of 1 μg/ml ovalbumin-derived N4 peptide, 100 IU/ml recombinant human IL-2 (rhIL-2) and the MPC inhibitors Compound 45 or 47 or control DMSO for 3 days. The cells were cultured for 4 more days in the presence of 100 IU/ml IL-2 and 10 ng/ml rhIL-7 (FIG. 1A) and the inhibitors or DMSO. When analyzing the surface expression of the central memory marker CD62L (FIG. 1B) and the pro-survival receptor CD127 (FIG. 1C) by flow cytometry on day 7, an increase in cells treated with the highest doses of compounds of the invention was observed compared to DMSO.

Row | IC50 [1] [nM] | IC50 [2] [nM] | SMILES | also measured
1 | 2200 | – | CCCc1cc(=O)[nH]c2nnc(SCc3cc(F)cc(F)c3)n12 [Compound 3, 3-[(3,5-difluorobenzyl)sulfanyl]-5-propyl[1,2,4]triazolo[4,3-a]pyrimidin-7 (8H)-one] | –
2 | 10200 | – | CCCc1cc(=O)[nH]c2nnc(SCc3cccc(C#N)c3)n12 [Compound 7, 3-{[(7-oxo-5-propyl-7,8-dihydro[1,2,4]triazolo[4,3-a]pyrimidin-3-yl)sulfanyl]methyl}benzonitrile] | –
3 | 5390 | – | CCCc1cc(=O)[nH]c2nnc(SCc3cc(F)ccc3C#N)n12 [Compound 8, 4-fluoro-2-{[(7-oxo-5-propyl-7,8-dihydro[1,2,4]triazolo[4,3-a]pyrimidin-3-yl)sulfanyl]methyl}benzonitrile] | –
4 | 878 | 185 | CCCc1cc(=O)[nH]c2nnc(SCc3cc(F)ccc3OC)n12 [Compound 9, 3-[(5-fluoro-2-methoxybenzyl)sulfanyl]-5-propyl[1,2,4]triazolo[4,3-a]pyrimidin-7 (8H)-one] | –
5 | 561 | 158 | CCCc1cc(=O)[nH]c2nnc(SCc3cc(F)ccc3C)n12 [Compound 12, 3-[(5-fluoro-2-methylbenzyl)sulfanyl]-5-propyl[1,2,4]triazolo[4,3-a]pyrimidin-7 (8H)-one] | –
6 | 1750 | – | CCCc1cc(=O)[nH]c2nnc(SCCc3ccccc3)n12 [Compound 14, 3-[(2-phenylethyl)sulfanyl]-5-propyl[1,2,4]triazolo[4,3-a]pyrimidin-7 (8H)-one] | –
7 | 2090 | – | CCCc1cc(=O)[nH]c2nnc(SCc3ccoc3)n12 [Compound 15, 3-[(furan-3-ylmethyl)sulfanyl]-5-propyl[1,2,4]triazolo[4,3-a]pyrimidin-7 (8H)-one] | –
8 | 2030 | – | CCCc1cc(=O)[nH]c2nnc(SCc3cccc(OC)c3)n12 [Compound 17, 3-[(3-methoxybenzyl)sulfanyl]-5-propyl[1,2,4]triazolo[4,3-a]pyrimidin-7 (8H)-one] | –
9 | 4210 | – | CCCc1cc(=O)[nH]c2nnc(SCc3ccc(C#N)cc3)n12 [Compound 18, 4-{[(7-oxo-5-propyl-7,8-dihydro[1,2,4]triazolo[4,3-a]pyrimidin-3-yl)sulfanyl]methyl}benzonitrile] | –
10 | 3480 | – | CCCc1cc(=O)[nH]c2nnc(SCc3ccc4occc4c3)n12 [Compound 19, 3-[(1-benzofuran-5-ylmethyl)sulfanyl]-5-propyl[1,2,4]triazolo[4,3-a]pyrimidin-7 (8H)-one] | –
11 | 593 | 171 | CCCc1cc(=O)[nH]c2nnc(SCc3c(C)cccc3C)n12 [Compound 25, 3-[(2,6-dimethylbenzyl)sulfanyl]-5-propyl[1,2,4]triazolo[4,3-a]pyrimidin-7 (8H)-one] | –
12 | 5810 | – | Cc1cc(=O)[nH]c2nnc(SCc3cc(F)ccc3F)n12 [Compound 29, 3-[(2,5-difluorobenzyl)sulfanyl]-5-methyl[1,2,4]triazolo[4,3-a]pyrimidin-7 (8H)-one] | –
13 | 943 | 1650 | O=c1cc(CCOCc2ccccc2)n2c(SCc3cc(F)ccc3F)nnc2[nH]1 [Compound 30, 5-[2-(benzyloxy)ethyl]-3-[(2,5-difluorobenzyl)sulfanyl][1,2,4]triazolo[4,3-a]pyrimidin-7 (8H)-one] | –
14 | 5660 | – | COCc1cc(=O)[nH]c2nnc(SCc3cc(F)ccc3F)n12 [Compound 31, 3-[(2,5-difluorobenzyl)sulfanyl]-5-(methoxymethyl) [1,2,4]triazolo[4,3-a]pyrimidin-7 (8H)-one] | –
15 | 1320 | 1040 | O=c1cc(CCOCc2ccccc2Cl)n2c(SCc3cc(F)ccc3F)nnc2[nH]1 [Compound 33, 5-{2-[(2-chlorobenzyl)oxy]ethyl}-3-[(2,5-difluorobenzyl)sulfanyl][1,2,4]triazolo[4,3-a]pyrimidin-7 (8H)-one] | –
16 | 593 | – | O=c1cc(C2CC2)n2c(SCc3c(F)cccc3Cl)nnc2[nH]1 [Compound 39, 3-[(2-chloro-6-fluorobenzyl)sulfanyl]-5-cyclopropyl[1,2,4]triazolo[4,3-a]pyrimidin-7 (8H)-one] | –
17 | 391 | 218 | CC(C)Cc1cc(=O)[nH]c2nnc(SCc3c(F)cccc3Cl)n12 [Compound 40, 3-[(2-chloro-6-fluorobenzyl)sulfanyl]-5-(2-methylpropyl) [1,2,4]triazolo[4,3-a]pyrimidin-7 (8H)-one] | –
18 | 129 | – | O=c1cc(CC2CC2)n2c(SCc3c(F)cccc3Cl)nnc2[nH]1 [Compound 41, 3-[(2-chloro-6-fluorobenzyl)sulfanyl]-5-(cyclopropylmethyl) [1,2,4]triazolo[4,3-a]pyrimidin-7 (8H)-one] | –
19 | 814 | 289 | O=c1cc(CCOCc2ccccc2)n2c(SCc3c(F)cccc3Cl)n[nH]c2n1 [Compound 43, 5-[2-(benzyloxy)ethyl]-3-[(2-chloro-6-fluorobenzyl)sulfanyl][1,2,4]triazolo[4,3-a]pyrimidin-7 (1H)-one] | –
20 | 4690 | – | N#Cc1ccc(CSc2nnc3[nH]c(=O)cc(Cc4ccccc4)n23)cc1 [Compound 46, 4-{[(5-benzyl-7-oxo-7,8-dihydro[1,2,4]triazolo[4,3-a]pyrimidin-3-yl)sulfanyl]methyl}benzonitrile] | –
21 | 167 | 184 | CCCc1cc(=O)[nH]c2nnc(Sc3ccccc3)n12 [Compound 47, 3-(phenylsulfanyl)-5-propyl[1,2,4]triazolo[4,3-a]pyrimidin-7 (8H)-one] | cells positive for central memory marker CD62L ([3]; vs DMSO (FIG. 1B)): increase; cells positive for pro-survival receptor CD127 ([3]; vs DMSO (FIG. 1C)): increase
22 | 873 | – | CCCc1c(C)c(=O)[nH]c2nnc(SCc3c(F)cccc3Cl)n12 [Compound 48, 3-[(2-chloro-6-fluorobenzyl)sulfanyl]-6-methyl-5-propyl[1,2,4]triazolo[4,3-a]pyrimidin-7 (8H)-one] | –
23 | 11200 | – | CCCc1cc(=O)[nH]c2nnc(S(=O)(=O)Cc3c(F)cccc3Cl)n12 [Compound 50, 3-[(2-chloro-6-fluorobenzyl)sulfonyl]-5-propyl[1,2,4]triazolo[4,3-a]pyrimidin-7 (8H)-one] | –
24 | 3650 | – | CCCc1cc(=O)[nH]c2nnc(CCc3ccccc3)n12 [Compound 51, 3-(2-phenylethyl)-5-propyl[1,2,4]triazolo[4,3-a]pyrimidin-7 (8H)-one] | –
25 | 12500 | – | Cc1cc(=O)[nH]c2nnc(SCc3ccc(Cl)cc3)n12 [Compound 85, 3-[(4-chlorobenzyl)sulfanyl]-5-methyl[1,2,4]triazolo[4,3-a]pyrimidin-7 (8H)-one] | –
26 | 2500 | – | CCCc1cc(=O)[nH]c2nnc(SCc3cccc4ccccc34)n12 [Compound 90, 3-[(naphthalen-1-ylmethyl)sulfanyl]-5-propyl[1,2,4]triazolo[4,3-a]pyrimidin-7 (8H)-one] | –
